Test results: ChEMBL document CHEMBL2417397, “Synthesis and biological properties of new N-Mannich bases derived from 3-methyl-3-phenyl- and 3,3-dimethyl-succinimides. Part V” (Eur J Med Chem, 2013)
Calls of active or inactive are those of the source. The rule behind the calls is not given here.

Test system: Mus musculus
Assay: Anticonvulsant activity in CF-1 albino mouse assessed as time of peak effect for protection against maximal electroshock-induced seizures at 30 to 300 mg/kg, ip
Assay type: functional
Settings: dose mg/kg 30-300; route intraperitoneal

Structure (SMILES) | Time
CC1(c2ccccc2)CC(=O)N(CN2CCN(c3cccc(Cl)c3)CC2)C1=O (stereo unspecified) | 6 h

Test system: Rattus norvegicus
Assay: Anticonvulsant activity in Sprague-Dawley albino rat assessed as protection against maximal electroshock-induced seizures at 30 mg/kg, po after 0.25 hrs
Assay type: functional
Settings: not given

Structure (SMILES) | Activity
CC1(c2ccccc2)CC(=O)N(CN2CCN(c3cccc(Cl)c3)CC2)C1=O (stereo unspecified) | inactive

Test system: Vibrio harveyi
Assay: Induction of mutagenecity in Vibrio harveyi BB7X
Assay type: organism-based
Settings: in vivo

Structure (SMILES) | Activity
CC1(c2ccccc2)CC(=O)N(CN2CCN(c3cccc(Cl)c3)CC2)C1=O (stereo unspecified) | Non-toxic

Test system: Rattus norvegicus
Assay: Anticonvulsant activity in Sprague-Dawley albino rat assessed as time of peak effect for protection against maximal electroshock-induced seizures at 30 mg/kg, po
Assay type: functional
Settings: not given

Structure (SMILES) | Time
CC1(c2ccccc2)CC(=O)N(CN2CCN(c3cccc(Cl)c3)CC2)C1=O (stereo unspecified) | 2 h

Test system: Vibrio harveyi
Assay: Antimutagenic activity in Vibrio harveyi BB7XM assessed as inhibition of 4-nitroquinoline-N-oxide-induced mutation
Assay type: functional
Settings: not given

Structure (SMILES) | inhibition (INH)
CC1(c2ccccc2)CC(=O)N(CN2CCN(c3cccc(Cl)c3)CC2)C1=O (stereo unspecified) | 57%

Test system: Mus musculus
Assay: Anticonvulsant activity in CF-1 albino mouse assessed as protection against 6 Hz psychomotor seizure at 100 mg/kg, ip after 0.5 hrs
Assay type: functional
Settings: route intraperitoneal

Structure (SMILES) | Activity
CC1(c2ccccc2)CC(=O)N(CN2CCN(c3cccc(Cl)c3)CC2)C1=O (stereo unspecified) | 25%

Test system: Mus musculus
Assay: Anticonvulsant activity in CF-1 albino mouse assessed as protection against 6 Hz psychomotor seizure at 100 mg/kg, ip after 2 hrs
Assay type: functional
Settings: route intraperitoneal

Structure (SMILES) | Activity
CC1(c2ccccc2)CC(=O)N(CN2CCN(c3cccc(Cl)c3)CC2)C1=O (stereo unspecified) | 50%

Test system: Rattus norvegicus
Assay: Neurotoxicity in Sprague-Dawley albino rat assessed as motor impairment at 30 mg/kg, po
Assay type: toxicity, organism-based
Parameters: dose 30 mg/kg, route oral
Settings: in vivo

Structure (SMILES) | Activity
CC1(c2ccccc2)CC(=O)N(CN2CCN(c3cccc(Cl)c3)CC2)C1=O (stereo unspecified) | Non-toxic

Test system: Mus musculus
Assay: Anticonvulsant activity in CF-1 albino mouse assessed as protection against 6 Hz psychomotor seizure at 100 mg/kg, ip after 4 hrs
Assay type: functional
Settings: route intraperitoneal

Structure (SMILES) | Activity
CC1(c2ccccc2)CC(=O)N(CN2CCN(c3cccc(Cl)c3)CC2)C1=O (stereo unspecified) | 25%

Test system: Mus musculus
Assay: Neurotoxicity in CF-1 albino mouse at 300 mg/kg, ip after 4 hrs by rotarod test
Assay type: toxicity, organism-based
Parameters: dose 300 mg/kg, route intraperitoneal
Settings: in vivo

Structure (SMILES) | Activity
CC1(c2ccccc2)CC(=O)N(CN2CCN(c3cccc(Cl)c3)CC2)C1=O (stereo unspecified) | Non-toxic

Test system: Mus musculus
Assay: Anticonvulsant activity in CF-1 albino mouse assessed as protection against 6 Hz psychomotor seizure at 100 mg/kg, ip after 1 hr
Assay type: functional
Settings: route intraperitoneal

Structure (SMILES) | Activity
CC1(c2ccccc2)CC(=O)N(CN2CCN(c3cccc(Cl)c3)CC2)C1=O (stereo unspecified) | 50%

Species: Rattus norvegicus
Assay: Protective index, ratio of TD50 for Sprague-Dawley albino rat by rotarod test to ED50 for Sprague-Dawley albino rat
Assay type: functional
Settings: not given

Structure (SMILES) | Ratio TD50/ED50
CC1(c2ccccc2)CC(=O)N(CN2CCN(c3cccc(Cl)c3)CC2)C1=O (stereo unspecified) | >8.95

Test system: Vibrio harveyi
Assay: Induction of mutagenecity in Vibrio harveyi BB7M
Assay type: organism-based
Settings: in vivo

Structure (SMILES) | Activity
CC1(c2ccccc2)CC(=O)N(CN2CCN(c3cccc(Cl)c3)CC2)C1=O (stereo unspecified) | Non-toxic

Test system: Rattus norvegicus
Assay: Anticonvulsant activity in Sprague-Dawley albino rat assessed as protection against maximal electroshock-induced seizures at 30 mg/kg, po after 4 hrs
Assay type: functional
Settings: not given

Structure (SMILES) | Activity
CC1(c2ccccc2)CC(=O)N(CN2CCN(c3cccc(Cl)c3)CC2)C1=O (stereo unspecified) | 50%

Test system: not listed separately
Assay: Neurotoxicity in po dosed Sprague-Dawley albino rat at 30 mg/kg, po after 0.25 to 4 hrs by rotarod test
Assay type: toxicity, organism-based
Parameters: dose 30 mg/kg, route oral
Settings: in vivo

Structure (SMILES) | TD50
CC1(c2ccccc2)CC(=O)N(CN2CCN(c3cccc(Cl)c3)CC2)C1=O (stereo unspecified) | > 250 mg/kg

Test system: not listed separately
Assay: Neurotoxicity in ip dosed CF-1 albino mouse at 30 to 300 mg/kg, ip after 0.5 to 4 hrs
Assay type: toxicity, organism-based
Parameters: route intraperitoneal
Settings: CF-1, mouse, in vivo

Structure (SMILES) | TD50
CC1(c2ccccc2)CC(=O)N(CN2CCN(c3cccc(Cl)c3)CC2)C1=O (stereo unspecified) | 496 mg/kg

Test system: Mus musculus
Assay: Anticonvulsant activity in CF-1 albino mouse assessed as protection against 6 Hz psychomotor seizure at 100 mg/kg, ip after 0.25 to 4 hrs
Assay type: functional
Settings: route intraperitoneal

Structure (SMILES) | Activity
CC1(c2ccccc2)CC(=O)N(CN2CCN(c3cccc(Cl)c3)CC2)C1=O (stereo unspecified) | 50%

Test system: not listed separately
Assay: Neurotoxicity in ip dosed CF-1 albino mouse after 0.5 hrs by rotarod test
Assay type: toxicity, organism-based
Settings: CF-1, mouse, in vivo

Structure (SMILES) | TD50 at 0.5 h
CC1(c2ccccc2)CC(=O)N(CN2CCN(c3cccc(Cl)c3)CC2)C1=O (stereo unspecified) | 300 mg/kg

Biological target: Sodium channel protein type 2 subunit alpha (Homo sapiens) (UniProt Q99250)
Assay: Inhibition of NaV1.2 channel (unknown origin) at 10 uM by electrophysiology
Settings: not given

Sodium channel protein type 2 subunit alpha (Homo sapiens), sequence (Q99250 whole entry, looked up): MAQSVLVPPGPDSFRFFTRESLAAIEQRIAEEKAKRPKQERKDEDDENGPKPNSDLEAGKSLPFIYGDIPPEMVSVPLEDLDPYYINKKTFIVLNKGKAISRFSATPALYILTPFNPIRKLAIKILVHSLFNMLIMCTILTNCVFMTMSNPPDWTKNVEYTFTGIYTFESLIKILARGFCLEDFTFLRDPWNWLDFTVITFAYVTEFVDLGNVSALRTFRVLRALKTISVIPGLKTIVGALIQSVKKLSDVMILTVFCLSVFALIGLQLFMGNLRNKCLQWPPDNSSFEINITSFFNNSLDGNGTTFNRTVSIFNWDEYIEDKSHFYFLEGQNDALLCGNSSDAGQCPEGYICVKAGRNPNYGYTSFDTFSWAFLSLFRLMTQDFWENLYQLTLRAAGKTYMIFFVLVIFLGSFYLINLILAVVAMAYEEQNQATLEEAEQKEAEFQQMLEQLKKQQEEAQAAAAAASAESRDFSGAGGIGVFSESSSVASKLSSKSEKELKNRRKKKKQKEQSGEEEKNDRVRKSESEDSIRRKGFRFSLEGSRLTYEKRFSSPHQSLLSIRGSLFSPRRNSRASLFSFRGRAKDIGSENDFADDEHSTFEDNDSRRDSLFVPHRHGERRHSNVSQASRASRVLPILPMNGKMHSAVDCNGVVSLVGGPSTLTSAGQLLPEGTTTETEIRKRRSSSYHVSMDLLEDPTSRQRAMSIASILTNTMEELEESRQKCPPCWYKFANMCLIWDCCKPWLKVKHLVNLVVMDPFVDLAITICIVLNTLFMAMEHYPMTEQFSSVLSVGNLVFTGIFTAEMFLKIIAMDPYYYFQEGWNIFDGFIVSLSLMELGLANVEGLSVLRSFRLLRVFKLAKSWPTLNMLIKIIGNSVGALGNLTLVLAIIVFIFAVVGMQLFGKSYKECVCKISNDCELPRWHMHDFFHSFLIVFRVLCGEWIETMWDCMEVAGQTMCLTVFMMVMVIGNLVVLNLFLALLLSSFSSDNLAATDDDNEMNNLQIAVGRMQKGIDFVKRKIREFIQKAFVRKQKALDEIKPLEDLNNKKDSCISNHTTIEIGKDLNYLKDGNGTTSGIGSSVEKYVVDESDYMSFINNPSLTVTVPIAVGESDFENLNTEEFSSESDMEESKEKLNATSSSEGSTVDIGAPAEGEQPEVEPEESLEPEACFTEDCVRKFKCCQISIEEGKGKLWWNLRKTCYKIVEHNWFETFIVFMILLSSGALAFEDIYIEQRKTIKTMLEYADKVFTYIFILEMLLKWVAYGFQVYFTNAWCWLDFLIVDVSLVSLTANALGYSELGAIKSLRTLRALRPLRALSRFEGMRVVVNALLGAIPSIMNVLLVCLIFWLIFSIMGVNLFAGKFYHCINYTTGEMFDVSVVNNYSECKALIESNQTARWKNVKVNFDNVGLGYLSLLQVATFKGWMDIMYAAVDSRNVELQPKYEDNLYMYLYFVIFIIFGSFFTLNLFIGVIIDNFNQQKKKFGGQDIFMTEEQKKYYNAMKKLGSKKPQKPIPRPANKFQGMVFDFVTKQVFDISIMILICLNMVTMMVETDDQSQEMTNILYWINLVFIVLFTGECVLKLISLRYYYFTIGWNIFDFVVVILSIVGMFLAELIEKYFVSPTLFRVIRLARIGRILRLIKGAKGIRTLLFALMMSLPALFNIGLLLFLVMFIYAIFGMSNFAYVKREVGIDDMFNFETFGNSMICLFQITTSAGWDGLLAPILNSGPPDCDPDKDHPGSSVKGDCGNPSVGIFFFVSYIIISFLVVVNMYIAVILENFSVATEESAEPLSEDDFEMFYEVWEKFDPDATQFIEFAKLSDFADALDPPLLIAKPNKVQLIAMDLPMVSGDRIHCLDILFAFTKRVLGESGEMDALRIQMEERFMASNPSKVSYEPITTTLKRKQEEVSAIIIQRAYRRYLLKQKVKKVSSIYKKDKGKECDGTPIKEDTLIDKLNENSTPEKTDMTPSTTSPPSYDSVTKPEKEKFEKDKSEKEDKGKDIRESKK

Structure (SMILES) | inhibition
CC1(c2ccccc2)CC(=O)N(CN2CCN(c3cccc(Cl)c3)CC2)C1=O (stereo unspecified) | 39.6%

Test system: Rattus norvegicus
Assay: Anticonvulsant activity in Sprague-Dawley albino rat assessed as protection against maximal electroshock-induced seizures at 30 mg/kg, po after 0.5 hrs
Assay type: functional
Settings: not given

Structure (SMILES) | Activity
CC1(c2ccccc2)CC(=O)N(CN2CCN(c3cccc(Cl)c3)CC2)C1=O (stereo unspecified) | 25%

Test system: Mus musculus
Assay: Anticonvulsant activity in ip dosed CF-1 albino mouse assessed as protection against maximal electroshock-induced seizures after 4 hrs
Assay type: functional
Settings: not given

Structure (SMILES) | MED50
CC1(c2ccccc2)CC(=O)N(CN2CCN(c3cccc(Cl)c3)CC2)C1=O (stereo unspecified) | 30 mg/kg

Test system: Vibrio harveyi
Assay: Induction of mutagenecity in Vibrio harveyi BB7XM
Assay type: organism-based
Settings: in vivo

Structure (SMILES) | Activity
CC1(c2ccccc2)CC(=O)N(CN2CCN(c3cccc(Cl)c3)CC2)C1=O (stereo unspecified) | Non-toxic

Test system: Rattus norvegicus
Assay: Anticonvulsant activity in Sprague-Dawley albino rat assessed as protection against maximal electroshock-induced seizures at 30 mg/kg, po after 1 hr
Assay type: functional
Settings: not given

Structure (SMILES) | Activity
CC1(c2ccccc2)CC(=O)N(CN2CCN(c3cccc(Cl)c3)CC2)C1=O (stereo unspecified) | 25%

Test system: Rattus norvegicus
Assay: Anticonvulsant activity in po dosed Sprague-Dawley albino rat assessed as protection against maximal electroshock-induced seizures after 0.25 to 4 hrs
Assay type: functional
Settings: not given

Structure (SMILES) | ED50
CC1(c2ccccc2)CC(=O)N(CN2CCN(c3cccc(Cl)c3)CC2)C1=O (stereo unspecified) | 27.9 mg/kg

Test system: Vibrio harveyi
Assay: Antimutagenic activity in Vibrio harveyi BB7 assessed as inhibition of 4-nitroquinoline-N-oxide-induced mutation
Assay type: functional
Settings: not given

Structure (SMILES) | inhibition (INH)
CC1(c2ccccc2)CC(=O)N(CN2CCN(c3cccc(Cl)c3)CC2)C1=O (stereo unspecified) | 25%

Test system: Mus musculus
Assay: Anticonvulsant activity in CF-1 albino mouse assessed as protection against maximal electroshock-induced seizures at 300 mg/kg, ip after 0.5 hrs
Assay type: functional, organism-based
Parameters: dose 300 mg/kg
Settings: not given

Structure (SMILES) | Activity
CC1(c2ccccc2)CC(=O)N(CN2CCN(c3cccc(Cl)c3)CC2)C1=O (stereo unspecified) | inactive

Test system: Mus musculus
Assay: Anticonvulsant activity in CF-1 albino mouse assessed as protection against 6 Hz psychomotor seizure at 100 mg/kg, ip after 0.25 hrs
Assay type: functional
Settings: not given

Structure (SMILES) | Activity
CC1(c2ccccc2)CC(=O)N(CN2CCN(c3cccc(Cl)c3)CC2)C1=O (stereo unspecified) | inactive

Biological target: Sodium channel protein type 2 subunit alpha (Homo sapiens) (UniProt Q99250)
Assay: Inhibition of NaV1.2 channel (unknown origin) at 1 uM by electrophysiology
Settings: not given

Structure (SMILES) | inhibition
CC1(c2ccccc2)CC(=O)N(CN2CCN(c3cccc(Cl)c3)CC2)C1=O (stereo unspecified) | 7.76%

Test system: Vibrio harveyi
Assay: Antimutagenic activity in Vibrio harveyi BB7X assessed as inhibition of 4-nitroquinoline-N-oxide-induced mutation
Assay type: functional
Settings: not given

Structure (SMILES) | inhibition (INH)
CC1(c2ccccc2)CC(=O)N(CN2CCN(c3cccc(Cl)c3)CC2)C1=O (stereo unspecified) | 0%

Test system: Vibrio harveyi
Assay: Induction of mutagenecity in Vibrio harveyi BB7
Assay type: organism-based
Settings: in vivo

Structure (SMILES) | Activity
CC1(c2ccccc2)CC(=O)N(CN2CCN(c3cccc(Cl)c3)CC2)C1=O (stereo unspecified) | Non-toxic

Test system: Rattus norvegicus
Assay: Anticonvulsant activity in Sprague-Dawley albino rat assessed as protection against maximal electroshock-induced seizures at 30 mg/kg, po after 2 hrs
Assay type: functional
Settings: not given

Structure (SMILES) | Activity
CC1(c2ccccc2)CC(=O)N(CN2CCN(c3cccc(Cl)c3)CC2)C1=O (stereo unspecified) | Active

Biological target: Sodium channel protein type 2 subunit alpha (Homo sapiens) (UniProt Q99250)
Assay: Inhibition of NaV1.2 channel (unknown origin) at 100 uM by electrophysiology
Settings: not given

Structure (SMILES) | inhibition
CC1(c2ccccc2)CC(=O)N(CN2CCN(c3cccc(Cl)c3)CC2)C1=O (stereo unspecified) | 86.9%

Test system: Mus musculus
Assay: Anticonvulsant activity in ip dosed CF-1 albino mouse assessed as protection against maximal electroshock-induced seizures after 0.5 to 4 hrs
Assay type: functional
Settings: not given

Structure (SMILES) | ED50
CC1(c2ccccc2)CC(=O)N(CN2CCN(c3cccc(Cl)c3)CC2)C1=O (stereo unspecified) | 41.1 mg/kg

Species: Mus musculus
Assay: Protective index, ratio of TD50 for CF-1 albino mouse by rotarod test to ED50 for CF-1 albino mouse
Assay type: functional
Settings: not given

Structure (SMILES) | Ratio TD50/ED50
CC1(c2ccccc2)CC(=O)N(CN2CCN(c3cccc(Cl)c3)CC2)C1=O (stereo unspecified) | 12.08

Test system: Vibrio harveyi
Assay: Antimutagenic activity in Vibrio harveyi BB7M assessed as inhibition of 4-nitroquinoline-N-oxide-induced mutation
Assay type: functional
Settings: not given

Structure (SMILES) | inhibition (INH)
CC1(c2ccccc2)CC(=O)N(CN2CCN(c3cccc(Cl)c3)CC2)C1=O (stereo unspecified) | 61%

Biological target: Sodium channel protein type 2 subunit alpha (Homo sapiens) (UniProt Q99250)
Assay: Inhibition of NaV1.2 channel (unknown origin) at 0.1 uM by electrophysiology
Settings: not given

Structure (SMILES) | inhibition
CC1(c2ccccc2)CC(=O)N(CN2CCN(c3cccc(Cl)c3)CC2)C1=O (stereo unspecified) | 16.3%
